Data from US6818653B1, “6,7-Disubstituted -5,8-quinolinedione derivatives as an antifungal agent” (Il Jin Copper Foil Corp., priority 2002, dated 2004).
Values after ≈ are worked out from the molar mass of the structure shown. Read-outs that look alike come from different tables or passages of the source.

Key:
[1] = test system: C. albicans; assay: ED50 in rats infected with C. albicans via tail vein; format: in vivo, rat; settings: for ED50: Candida albicans, read-out: ED50 ± SD (n = 5)
Method: C. albicans (1×10^7) isolated was inoculated to Sabouraud's agar, suspended in a physiological saline solution, and injected into tail vein of a rat. Strains to kill a rat within 48 hours were selected. C. albicans (2×10^6 which is concentration to kill a rat within 48 hours) suspended in a physiological saline solution was injected and infected into tail veins of 125 rats. Each concentration (10, 2, 0.5, 0.1, 0.025 mg/kg) of the compounds of table 3 was administered to each 10 rats. After infecting with Candida strain, each compound was administered to each 10 rats. Fluconazol as a control drug was also administered with 10, 2, 0.5 and 0.1 mg/kg of concentrations. A physiological saline solution containing 0.2% tween 20 was administered as a control group.

[2] = test system: Candida glabrata ATCC2001; assay: MIC by solid medium dilution method; format: cell-based; settings: Sabouraud's agar, 3 days at 30° C.; for MIC: Nakaseomyces glabratus, ATCC2001, 72 h
Method: (§1) The minimum inhibitory concentration (MIC), which indicates the lowest concentration of the active ingredient in the growth medium, was determined by solid medium dilution method. Pathogens strains used are Candida albicans ATCC10231, Candida glabrata ATCC2001, Candida tropicalis ATCC8775, Candida parasilosis ATCC22019, Cryptococuss neoformans KCTC7223.
(§2) 4 mg of a test compound was dissolved in 2 ml of dimethylfulfoxide(DMSO) to produce solutions having a concentration of 2 mg/ml for use and serial two-fold dilution was prepared. The test medium was Sabouraud's agar. 50 μl aliquot of serial two-fold dilution was added to 1 ml of agar medium in 10×1.2 cm petri dishes to be 100, 50, 25, 12.5 6.3, 1.6, and 0.8 μg/ml of test compound concentration and the slant was prepared by tilting the petri dishes. The MIC value without containing a test compound was determined in order to test an effect of a solvent to an antifungal activity. Hyphae with a diameter of 2 mm were inoculated with 2×10^5 CFU. After the medium was cultured for 3 days at 30° C., the MIC values were determined. Control drugs were fluconazole and ketoconazole.

[3] = test system: Candida parasilosis ATCC22019; assay: MIC by solid medium dilution method; format: cell-based; settings: Sabouraud's agar, 3 days at 30° C.; for MIC: 72 h, read-out: MIC C. parapsilosis
Method: as §1, §2

[4] = test system: Candida albicans ATCC10231; assay: MIC by solid medium dilution method; format: cell-based; settings: Sabouraud's agar, 3 days at 30° C.; for MIC: Candida albicans, ATCC10231, 72 h
Method: as §1, §2

[5] = test system: Cryptococuss neoformans KCTC7223; assay: MIC by solid medium dilution method; format: cell-based; settings: Sabouraud's agar, 3 days at 30° C.; for MIC: Cryptococcus neoformans, KCTC7223, 72 h
Method: as §1, §2

[6] = test system: Candida tropicalis ATCC8775; assay: MIC by solid medium dilution method; format: cell-based; settings: Sabouraud's agar, 3 days at 30° C.; for MIC: Candida tropicalis, ATCC8775, 72 h, read-out: MIC C. tropicallis
Method: as §1, §2

[7] = rat infected with C. albicans 2×10^6 via tail vein

| Compound | ED50 [1] [mg/kg] | MIC [2] [µg/mL] | MIC [3] [µg/mL] | MIC [4] [µg/mL] | MIC [5] [µg/mL] | MIC [6] [µg/mL] | MIC C. glabrata [2] [µg/mL] | MIC C. parapsilosis [3] [µg/mL] | MIC C. albicans [4] [µg/mL] | MIC C. neoformans [5] [µg/mL] | MIC C. tropicallis [6] [µg/mL] | ED50 [1, 7] [mg/kg] | ED50 ± SD (n = 5) [1, 7] [mg/kg] |
| --- | --- | --- | --- | --- | --- | --- | --- | --- | --- | --- | --- | --- | --- |
| O=C1C(Nc2ccc(Br)cc2)=C(Br)C(=O)c2ncccc21 [Compound No. 3, 6-[(N-4-bromophenyl)amino]-7-bromo-5,8-quinolindion] | 0.06 | 6.3 (≈ 15.4 µM) | 25 (≈ 61.3 µM) | 6.3 (≈ 15.4 µM) | 6.3 (≈ 15.4 µM) | 12.5 (≈ 30.6 µM) | – | – | – | – | – | – | – |
| CSC1=C(Nc2ccc(F)c(F)c2F)C(=O)c2cccnc2C1=O [compound 5, 6-[(N-2,3,4-trifulorophenyl)amino]-7-methylmercapto-5,8-quinolindion] | – | – | – | – | – | – | 3.2 (≈ 9.13 µM) | 25.0 (≈ 71.4 µM) | 1.6 (≈ 4.57 µM) | 6.3 (≈ 18 µM) | 3.2 (≈ 9.13 µM) | – | – |
| OC(Cn1cncn1)(Cn1cncn1)c1ccc(F)cc1F [Fluconazole, fluconazole, reference compound] | – | 25 (≈ 81.6 µM) | 12.5 (≈ 40.8 µM) | 25 (≈ 81.6 µM) | 25 (≈ 81.6 µM) | 100 (≈ 327 µM) | – | – | – | – | – | 6 | – |
| CC(=O)c1ccc(NC2=C(SC#N)C(=O)c3ncccc3C2=O)cc1 [compound 11, 6-[(N-4-acetophenyl)amino]-7-thiocyano-5,8-quinolindion] | – | – | – | – | – | – | 25 (≈ 71.6 µM) | 3.2 (≈ 9.16 µM) | 6.3 (≈ 18 µM) | <0.8 | 3.2 (≈ 9.16 µM) | – | – |
| CC(=O)N1CCN(c2ccc(OCC3COC(Cn4ccnc4)(c4ccc(Cl)cc4Cl)O3)cc2)CC1 (stereo not drawn) [Ketoconazole, ketoconazole, reference compound] | – | 12.5 (≈ 23.5 µM) | 12.5 (≈ 23.5 µM) | 12.5 (≈ 23.5 µM) | 12.5 (≈ 23.5 µM) | 12.5 (≈ 23.5 µM) | – | – | – | – | – | – | – |
| CCCCCCCCCSC1=C(Cl)C(=O)c2ncccc2C1=O [compound 20, 6-n-nonylmercapto-7-chloro-5,8-quinolindion] | – | 50 (≈ 142 µM) | 25 (≈ 71 µM) | 50 (≈ 142 µM) | 25 (≈ 71 µM) | 6.3 (≈ 17.9 µM) | – | – | – | – | – | – | – |
| 6-n-hecxylmercapto-7-chloro-5,8-quinolindion [compound 17] | – | – | – | – | – | – | 50 | 25 | 25 | 12.5 | 50 | – | – |
| CCCCCCCSC1=C(Cl)C(=O)c2ncccc2C1=O [compound 18, 6-n-heptylmercapto-7-chloro-5,8-quinolindion] | – | 50 (≈ 154 µM) | 6.3 (≈ 19.5 µM) | 6.3 (≈ 19.5 µM) | 12.5 (≈ 38.6 µM) | 12.5 (≈ 38.6 µM) | – | – | – | – | – | – | – |
| CCCCCSC1=C(Cl)C(=O)c2ncccc2C1=O [compound 16, 6-n-pentylmercapto-7-chloro-5,8-quinolindion] | – | 12.5 (≈ 42.3 µM) | 6.3 (≈ 21.3 µM) | 3.2 (≈ 10.8 µM) | 25 (≈ 84.5 µM) | 50 (≈ 169 µM) | – | – | – | – | – | – | – |
| O=C1C(Nc2cc(Cl)cc(Cl)c2)=C(Cl)C(=O)c2ncccc21 [Compound No. 2, 6-[(N-3,5-dichlorophenyl)amino]-7-chloro-5,8-quinolindion] | – | – | – | – | – | – | 12.5 (≈ 35.4 µM) | 6.3 (≈ 17.8 µM) | 12.5 (≈ 35.4 µM) | 12.5 (≈ 35.4 µM) | 25.0 (≈ 70.7 µM) | – | 0.07 |
| CC(=O)c1ccc(NC2=C(Cl)C(=O)c3ncccc3C2=O)cc1 [Compound No. 4, 6-[(N-4-acetophenyl)amino]-7-chloro-5,8-quinolindion] | – | – | – | – | – | – | 3.2 (≈ 9.79 µM) | 6.3 (≈ 19.3 µM) | 1.6 (≈ 4.9 µM) | 12.5 (≈ 38.3 µM) | 3.2 (≈ 9.79 µM) | – | – |
| CCCSC1=C(Cl)C(=O)c2ncccc2C1=O [compound 14, 6-n-propylmercapto-7-chloro-5,8-quinolindion] | – | 50 (≈ 187 µM) | 12.5 (≈ 46.7 µM) | 12.5 (≈ 46.7 µM) | 3.2 (≈ 12 µM) | 50 (≈ 187 µM) | – | – | – | – | – | – | – |
| N#CSC1=C(Nc2ccc(I)cc2)C(=O)c2cccnc2C1=O [compound 8, 6-[(N-4-iodophenyl)amino]-7-thiocyano-5,8-quinolindion] | – | 12.5 (≈ 28.9 µM) | 100 (≈ 231 µM) | 12.5 (≈ 28.9 µM) | 12.5 (≈ 28.9 µM) | 12.5 (≈ 28.9 µM) | – | – | – | – | – | – | – |
| CSC1=C(Nc2ccc(Cl)cc2)C(=O)c2cccnc2C1=O [compound 6, 6-[(N-4-chlorophenyl)amino]-7-methylmercapto-5,8-quinolindion] | – | 6.3 (≈ 19 µM) | 25 (≈ 75.6 µM) | 12.5 (≈ 37.8 µM) | 12.5 (≈ 37.8 µM) | < 0.8 | – | – | – | – | – | – | – |
| N#CSC1=C(Nc2ccc(Cl)cc2)C(=O)c2cccnc2C1=O [compound 10, 6-[(N-4-chlorophenyl)amino]-7-thiocyano-5,8-quinolindion] | – | 12.5 (≈ 36.6 µM) | 100 (≈ 293 µM) | 12.5 (≈ 36.6 µM) | 6.3 (≈ 18.4 µM) | 12.5 (≈ 36.6 µM) | – | – | – | – | – | – | – |
| N#CSC1=C(Nc2cc(F)cc(F)c2)C(=O)c2cccnc2C1=O [compound 12, 6-[(N-3,5-difulorophenyl)amino]-7-thiocyano-5,8-quinolindion] | – | – | – | – | – | – | 12.5 (≈ 36.4 µM) | 1.6 (≈ 4.66 µM) | 12.5 (≈ 36.4 µM) | <0.8 | 3.2 (≈ 9.32 µM) | – | – |
| CCSC1=C(Cl)C(=O)c2ncccc2C1=O [compound 13, 6-n-ethylmercapto-7-chloro-5,8-quinolindion] | – | – | – | – | – | – | 50 (≈ 197 µM) | 3.2 (≈ 12.6 µM) | 12.5 (≈ 49.3 µM) | 6.3 (≈ 24.8 µM) | 100 (≈ 394 µM) | – | – |
| CCCCSC1=C(Cl)C(=O)c2ncccc2C1=O [compound 15, 6-n-butylmercapto-7-chloro-5,8-quinolindion] | – | 12.5 (≈ 44.4 µM) | 25 (≈ 88.7 µM) | 25 (≈ 88.7 µM) | 12.5 (≈ 44.4 µM) | 100 (≈ 355 µM) | – | – | – | – | – | – | – |
| N#CSC1=C(Nc2ccc(Br)cc2)C(=O)c2cccnc2C1=O [compound 9, 6-[(N-4-bromophenyl)amino]-7-thiocyano-5,8-quinolindion] | – | 6.3 (≈ 16.3 µM) | < 0.8 | < 0.8 | 3.2 (≈ 8.29 µM) | < 0.8 | – | – | – | – | – | – | – |
| CSC1=C(Nc2ccc(I)cc2)C(=O)c2cccnc2C1=O [compound 7, 6-[(N-4-iodophenyl)amino]-7-methylmercapto-5,8-quinolindion] | – | 3.2 (≈ 7.58 µM) | 25 (≈ 59.2 µM) | 6.3 (≈ 14.9 µM) | 3.2 (≈ 7.58 µM) | 3.2 (≈ 7.58 µM) | – | – | – | – | – | – | – |
| O=C1C(Nc2ccc(Cl)cc2)=C(Br)C(=O)c2ncccc21 [Compound No. 1, 6-[(N-4-chlorophenyl)amino]-7-bromo-5,8-quinolindion] | 0.06 | 12.5 (≈ 34.4 µM) | 25 (≈ 68.8 µM) | 6.3 (≈ 17.3 µM) | 12.5 (≈ 34.4 µM) | 12.5 (≈ 34.4 µM) | – | – | – | – | – | – | – |
| CCCCCCCCSC1=C(Cl)C(=O)c2ncccc2C1=O [compound 19, 6-n-octylmercapto-7-chloro-5,8-quinolindion] | – | 25 (≈ 74 µM) | 3.2 (≈ 9.47 µM) | 12.5 (≈ 37 µM) | 12.5 (≈ 37 µM) | 12.5 (≈ 37 µM) | – | – | – | – | – | – | – |
